Results taken from ChEMBL document CHEMBL3763030, “Structure-Activity Relationship of Azaindole-Based Glucokinase Activators” (J Med Chem, 2016).

assay: Stability in C57BL/6J mouse microsomes; type: ADME, Microsome

Stability	SMILES
85%	CS(=O)(=O)c1ccc([C@@H](C[C@H]2CCC(=O)C2)C(=O)Nc2cnccn2)cc1Cl [PIRAGLIATIN]
50%	C[S+]([O-])c1ccc(C(CC2CCCC2)c2cc3cccnc3[nH]2)cc1Cl (stereo in doubt; 16a)
40%	C[S+]([O-])c1ccc(C(CC2CCCC2)c2cc3cccnc3[nH]2)cc1Cl (stereo in doubt; 16c)
